Counter-ions that a name gives are not always drawn. Like-named read-outs stand apart in the source and are kept apart here.

As usually defined, the IC50 is the concentration that gives 50% inhibition.

The assay deals with RS4; 11 with G101V mutation. The assay can be described thus: In vitro anti-proliferation assay (ATPlite luminescence) in BCL-2-dependent ALL cell line RS4;11 with G101V mutation. The assay is classed as cell-based. As to conditions: read-out: RS411-G101V IC50. In a few lines: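 RS4;11 G101V cells at about 1×10^4 per well were exposed to a range of compound concentrations for about 72 h in medium with 10% FBS. Cellular ATP was measured by ATPlite luminescence after lysis, and IC50 was derived from the dose-response.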

Setting [1] is: cellular anti-proliferative IC50, about 72 hours, medium with 10% FBS, ATPlite.

On to `COc1cc(CN2CCN(C3CC4(CCN(c5ccc(C(=O)NS(=O)(=O)c6ccc(NCC7CCOCC7)c([N+](=O)[O-])c6)c(N6c7cc8cc[nH]c8nc7O[C@H]7COCC[C@@H]76)c5)CC4)C3)[C@@H](c3ccccc3OC(C)C)C2)cnc1N1CCOCC1` [Example 133, 2-[(3R,8S)-2,5-dioxa-9,15,17-triazatetracyclo[8.7.0.0^{3,8}.0^{12,16}]heptadeca-1(10),11,13,16-tetraen-9-yl]-4-{2-[(2S)-2-(2-isopropoxyphenyl)-4-{[5-methoxy-6-(morpholin-4-yl)pyridin-3-yl]methyl}piperazin-1-yl]-7-azaspiro[3.5]nonan-7-yl}-N-{3-nitro-4-[(oxan-4-ylmethyl)amino]benzenesulfonyl}benzamide], for which, under setting [1], the IC50 was 0.0324 µM.

Turning to `COc1ccc(CN2CCN(C3CC4(CCN(c5ccc(C(=O)NS(=O)(=O)c6ccc(NC[C@H]7CC[C@](C)(O)CC7)c([N+](=O)[O-])c6)c(N6c7cc8cc[nH]c8nc7O[C@H]7COCC[C@@H]76)c5)CC4)C3)[C@@H](c3ccccc3OC(C)C)C2)cc1` [Example 99, 2-[(3R,8S)-2,5-dioxa-9,15,17-triazatetracyclo[8.7.0.0^{3,8}.0^{12,16}]heptadeca-1(10),11,13,16-tetraen-9-yl]-4-{2-[(2S)-2-(2-isopropoxyphenyl)-4-[(4-methoxyphenyl)methyl]piperazin-1-yl]-7-azaspiro[3.5]nonan-7-yl}-N-[3-nitro-4-({[(1r,4r)-4-hydroxy-4-methylcyclohexyl]methyl}amino)benzenesulfonyl]benzamide], the IC50 under setting [1] came out at 0.0385 µM.

Regarding `COc1cc2c(nc1N1CCOC[C@@H]1C)COC[C@@H]2N1CCN(C2CC3(CCN(c4ccc(C(=O)NS(=O)(=O)c5cc6c(c([N+](=O)[O-])c5)N[C@H](C5CCOCC5)CO6)c(N5c6cc7cc[nH]c7nc6O[C@H]6COCC[C@@H]65)c4)CC3)C2)[C@H](c2ccccc2OC(C)C)C1` [Example 233, 4-(2-((R)-2-(2-isopropoxyphenyl)-4-((R)-3-methoxy-2-((S)-3-methylmorpholino)-5,8-dihydro-6H-pyrano[3,4-b]pyridin-5-yl)piperazin-1-yl)-7-azaspiro[3.5]nonan-7-yl)-N-(((R)-5-nitro-3-(tetrahydro-2H-pyran-4-yl)-3,4-dihydro-2H-benzo[b][1,4]oxazin-7-yl)sulfonyl)-2-((5aS,9aR)-6,7,9,9a-tetrahydro-1H-pyrano[3,4-b]pyrrolo[3′,2′:5,6]pyrido[3,2-e][1,4]oxazin-5(5aH)-yl)benzamide], the IC50 (Homo sapiens, RS4-11, 72 h) was determined as 0.00464 µM.

`CC(C)Oc1ccccc1[C@@H]1CN(Cc2ccc(F)c(F)c2)CCN1C1CC2(CCN(c3cc(N4c5cc6cc[nH]c6nc5O[C@H]5COCC[C@@H]54)c(C(=O)NS(=O)(=O)c4cc5c(c([N+](=O)[O-])c4)N[C@H](C4CCOCC4)CO5)cc3F)CC2)C1` [Example 227, 4-{2-[(2R)-4-[(3,4-difluorophenyl)methyl]-2-(2-isopropoxyphenyl)piperazin-1-yl]-7-azaspiro[3.5]nonan-7-yl}-2-[(3R,8S)-2,5-dioxa-9,15,17-triazatetracyclo[8.7.0.0^{3,8}.0^{12,16}]heptadeca-1(10),11,13,16-tetraen-9-yl]-5-fluoro-N-[(3R)-5-nitro-3-(oxan-4-yl)-3,4-dihydro-2H-1,4-benzoxazin-7-ylsulfonyl]benzamide]: under setting [1], the half-maximal inhibitory concentration (IC50) came out at 0.119 µM.

Consider `CC(C)Oc1ccccc1[C@@H]1CN(c2ccncc2)CCN1C1CC2(CCN(c3ccc(C(=O)NS(=O)(=O)c4cc5c(c([N+](=O)[O-])c4)N[C@H](C4CCOCC4)CO5)c(N4c5cc6cc[nH]c6nc5O[C@H]5COCC[C@@H]54)c3)CC2)C1` [Example 223, 4-(2-((R)-2-(2-isopropoxyphenyl)-4-(pyridin-4-yl)piperazin-1-yl)-7-azaspiro[3.5]nonan-7-yl)-N-(((R)-5-nitro-3-(tetrahydro-2H-pyran-4-yl)-3,4-dihydro-2H-benzo[b][1,4]oxazin-7-yl)sulfonyl)-2-((5aS,9aR)-6,7,9,9a-tetrahydro-1H-pyrano[3,4-b]pyrrolo[3′,2′:5,6]pyrido[3,2-e][1,4]oxazin-5(5aH)-yl)benzamide], for which, under “Homo sapiens, RS4-11, 72 h”, the IC50 worked out at 0.223 µM.

With `CC(C)Oc1ccccc1[C@H]1CN(Cc2ccc(N3CCOC[C@H]3C)c(F)c2)CCN1C1CC2(CCN(c3ccc(C(=O)NS(=O)(=O)c4ccc(NCC5CCC(C)(O)CC5)c([N+](=O)[O-])c4)c(N4c5cc6cc[nH]c6nc5O[C@H]5COCC[C@@H]54)c3)CC2)C1` (stereo partly drawn) [Example 153, 2-[(3R,8S)-2,5-dioxa-9,15,17-triazatetracyclo[8.7.0.0^{3,8}.0^{12,16}]heptadeca-1(10),11,13,16-tetraen-9-yl]-4-{2-[(2S)-4-({3-fluoro-4-[(3R)-3-methylmorpholin-4-yl]phenyl}methyl)-2-(2-isopropoxyphenyl)piperazin-1-yl]-7-azaspiro[3.5]nonan-7-yl}-N-[3-nitro-4-({[(1r,4r)-4-hydroxy-4-methylcyclohexyl]methyl}amino)benzenesulfonyl]benzamide], under setting [1], the IC50 was 0.0471 µM.

For the compound `COc1cc(CN2CCN([C@@H]3CC4(CCN(c5ccc(C(=O)NS(=O)(=O)c6ccc(NCC7CCC(C)(O)CC7)c([N+](=O)[O-])c6)c(N6c7cc8cc[nH]c8nc7O[C@H]7COCC[C@@H]76)c5)CC4)[C@H]3C)[C@@H](c3ccccc3OC(C)C)C2)cnc1N1CCOCC1` (stereo partly drawn) [Example 121, 2-[(3R,8S)-2,5-dioxa-9,15,17-triazatetracyclo[8.7.0.0^{3,8}.0^{12,16}]heptadeca-1(10),11,13,16-tetraen-9-yl]-4-[(1R,2R)-2-[(2S)-2-(2-isopropoxyphenyl)-4-{[5-methoxy-6-(morpholin-4-yl)pyridin-3-yl]methyl}piperazin-1-yl]-1-methyl-7-azaspiro[3.5]nonan-7-yl]-N-[3-nitro-4-({[(1r,4r)-4-hydroxy-4-methylcyclohexyl]methyl}amino)benzenesulfonyl]benzamide], the IC50 under setting [1] was found to be 0.0479 µM.

In the case of `COc1cc(CN2CCN(C3CC4(CCN(c5ccc(C(=O)NS(=O)(=O)c6cc7c(c([N+](=O)[O-])c6)N[C@H](C6CCOCC6)CO7)c(N6c7cc8cc[nH]c8nc7O[C@H]7COCC[C@@H]76)c5)CC4)C3)[C@H](c3ccccc3C(C)C)C2)cnc1N1CCOC[C@@H]1C` [Example 172, 2-[(3R,8S)-2,5-dioxa-9,15,17-triazatetracyclo[8.7.0.0^{3,8}.0^{12,16}]heptadeca-1(10),11,13,16-tetraen-9-yl]-4-{2-[(2R)-2-(2-isopropylphenyl)-4-({5-methoxy-6-[(3S)-3-methylmorpholin-4-yl]pyridin-3-yl}methyl)piperazin-1-yl]-7-azaspiro[3.5]nonan-7-yl}-N-[(3R)-5-nitro-3-(oxan-4-yl)-3,4-dihydro-2H-1,4-benzoxazin-7-ylsulfonyl]benzamide], the IC50 under setting [1] stood at 0.0014 µM.

Take `Cc1ccccc1[C@@H]1CN(C2CCC(C)(O)CC2)CCN1C1CC2(CCN(c3ccc(C(=O)NS(=O)(=O)c4ccc(NCC5CCC(C)(O)CC5)c([N+](=O)[O-])c4)c(N4c5cc6cc[nH]c6nc5O[C@H]5COCC[C@@H]54)c3)CC2)C1` (stereo partly drawn) [Example 113, 2-[(3R,8S)-2,5-dioxa-9,15,17-triazatetracyclo[8.7.0.0^{3,8}.0^{12,16}]heptadeca-1(10),11,13,16-tetraen-9-yl]-4-{2-[(2R)-2-(2-methylphenyl)-4-[(1s,4s)-4-hydroxy-4-methylcyclohexyl]piperazin-1-yl]-7-azaspiro[3.5]nonan-7-yl}-N-[3-nitro-4-({[(1r,4r)-4-hydroxy-4-methylcyclohexyl]methyl}amino)benzenesulfonyl]benzamide hydrochloride]: the IC50 (cellular anti-proliferative IC50, about 72 hours, medium with 10% FBS, ATPlite, hydrochloride) came to 0.0082 µM.

As to `CC[C@H](c1ccc(F)c(F)c1)N1CCN(C2CC3(CCN(c4ccc(C(=O)NS(=O)(=O)c5cc6c(c([N+](=O)[O-])c5)N[C@H](C5CCOCC5)CO6)c(N5c6cc7cc[nH]c7nc6O[C@H]6COCC[C@@H]65)c4)CC3)C2)[C@H](c2ccccc2OC(C)C)C1` [Example 246, 4-(2-((R)-4-((R)-1-(3,4-difluorophenyl)propyl)-2-(2-isopropoxyphenyl)piperazin-1-yl)-7-azaspiro[3.5]nonan-7-yl)-N-(((R)-5-nitro-3-(tetrahydro-2H-pyran-4-yl)-3,4-dihydro-2H-benzo[b][1,4]oxazin-7-yl)sulfonyl)-2-((5aS,9aR)-6,7,9,9a-tetrahydro-1H-pyrano[3,4-b]pyrrolo[3′,2′:5,6]pyrido[3,2-e][1,4]oxazin-5(5aH)-yl)benzamide], where the note is “Homo sapiens, RS4-11, 72 h”, the IC50 amounted to 0.209 µM.

With `CC(C)Oc1ccccc1[C@@H]1CN(Cc2ccc(F)c(F)c2)CCN1C1CC2(CCN(c3nc(N4c5cc6cc[nH]c6nc5O[C@H]5COCC[C@@H]54)c(C(=O)NS(=O)(=O)c4cc5c(c([N+](=O)[O-])c4)N[C@H](C4CCOCC4)CO5)cc3F)CC2)C1` [Example 235, 6-{2-[(2R)-4-[(3,4-difluorophenyl)methyl]-2-(2-isopropoxyphenyl)piperazin-1-yl]-7-azaspiro[3.5]nonan-7-yl}-2-[(3R,8S)-2,5-dioxa-9,15,17-triazatetracyclo[8.7.0.0^{3,8}.0^{12,16}]heptadeca-1(10),11,13,16-tetraen-9-yl]-5-fluoro-N-[(3R)-5-nitro-3-(oxan-4-yl)-3,4-dihydro-2H-1,4-benzoxazin-7-ylsulfonyl]pyridine-3-carboxamide], under setting [1], the IC50 was found to be 2.27 µM.

For the compound `Cc1ccccc1[C@@H]1CN(CC2CCOCC2)CCN1C1CC2(CCN(c3ccc(C(=O)NS(=O)(=O)c4cc5c(c([N+](=O)[O-])c4)N[C@H](C4CCOCC4)CO5)c(N4c5cc6cc[nH]c6nc5O[C@H]5COCC[C@@H]54)c3)CC2)C1` [Example 184, 2-[(3R,8S)-2,5-dioxa-9,15,17-triazatetracyclo[8.7.0.0^{3,8}.0^{12,16}]heptadeca-1(10),11,13,16-tetraen-9-yl]-4-{2-[(2R)-2-(2-methylphenyl)-4-(oxan-4-ylmethyl)piperazin-1-yl]-7-azaspiro[3.5]nonan-7-yl}-N-[(3R)-5-nitro-3-(oxan-4-yl)-3,4-dihydro-2H-1,4-benzoxazin-7-ylsulfonyl]benzamide], the IC50 under setting [1] is 0.0406 µM.

The values above are taken from patent US20250114374A1, “BCL-2 INHIBITORS” (Newave Pharmaceutical Inc., priority 2021, published 2025).
